Experimental data as given in patent publication US10087416B2, “Culturing pluripotent stem cells” (Agency for Science, Technology and Research, priority 2013, dated 2018).

Columns and labels:
Format in all cases: cell-based, human
3iL hESCs = experiment: Signaling pathway inhibitor treatment of 3iL hESCs (pluripotency markers, colony numbers); conditions: treated for 10 days, compared to 3iL hESC control, FIG. 4B
Method: The hESC line H1 (WA-01, passage 28) was used for this study. For routine culture of hESCs in TeSR1 (Stem cell technologies), cells were cultured feeder free on matrigel (BD). Cell media was changed daily. The hESCs were subcultured with 1 mg/ml Dispase (Stem cell technologies) every 5-7 days. 3iL hESCs culture medium contains 1 μM of PD0325901 (Sigma), 2 μM of BIO (Sigma), 2 μM of Dorsomorphin (Sigma) and 10 ng/ml human LIF (Millipore) in TeSR1. 3iL media are prepared fresh and stored at 4° C. for not more than 2 weeks. For treatment with 3iL conditions, hESCs cultured in TeSR1 was treated with 3iL 48 hrs post-seeding. The cells are subsequently subcultured on mitomycin C inactivated mouse fibroblast. Cells are dissociated to single cells using TrypLE (Life Technologies). […]
For expression analysis, total RNA was extracted using the TRIzol reagent (Invitrogen) with chloroform and precipitated with isopropanol. […] RNA concentration was determined with the NanoDrop 2000 (Thermo Scientific). 500 ng of RNA was used for each reverse transcription reaction using the SuperScript II Kit (Invitrogen) to produce the cDNA for subsequent quantitative assays. Quantitative real-time PCR (qPCR) analysis was performed with the SYBR Green Master Mix (KAPA) using the ABI PRISM 7900 sequence detection system. […] Samples were multiplexed and sequenced single read 76 bp (HiSeq 2000, Illumina). […]

LIF signaling = LIF signaling activity in hESCs (GP130, phosphorylated STAT3, STAT3 responsive genes, NANOG)
Method: For expression analysis, total RNA was extracted using the TRIzol reagent (Invitrogen) with chloroform and precipitated with isopropanol. The precipitated RNA was centrifuged at 13000 rpm at 4° C. for 10 min. The RNA pellet was washed with 70% ethanol and subsequently reconstituted with DEPC-treated water (AMBION). DNA contaminants were digested with DNASE I (Ambion) at 37° C. for 30 min. The DNASE I enzyme is heat inactivated at 70° C. for 10 min. RNA concentration was determined with the NanoDrop 2000 (Thermo Scientific). 500 ng of RNA was used for each reverse transcription reaction using the SuperScript II Kit (Invitrogen) to produce the cDNA for subsequent quantitative assays. Quantitative real-time PCR (qPCR) analysis was performed with the SYBR Green Master Mix (KAPA) using the ABI PRISM 7900 sequence detection system. For RNA-Seq library preparation, the total RNA was further purified by column (Purelink RNA Mini kit, Ambion). […] Samples were multiplexed and sequenced single read 76 bp (HiSeq 2000, Illumina).
hESCs were lysed with a lysis buffer (50 mM Tris-HCl, pH 8.0, 150 mM NaCl, 10 μM ZnCl, 0.5% Nonidet P-40, 5% glycerol) supplemented with protease inhibitor cocktail (Merck). Protein concentration was measured with a Bradford assay kit (Bio-Rad). […] After washing with PBST, signals were detected using the Western Blotting Luminol Reagents (Santa Cruz).

hESCs = experiment: Small molecule treatment of hESCs, expression of pluripotency and lineage markers (qPCR); conditions: for Gene expression levels of pluripotency markers NANOG and POU5F1: hESCs treated with individual chemicals for 4 days, FIG. 1C; for Expression level of lineage markers / Expression of NANOG and POU5F1: individual chemicals of combination 22, subcultured onto feeders, harvested after 4 days, FIG. 1F
Method: For routine culture of hESCs in TeSR1 (Stem cell technologies), cells were cultured feeder free on matrigel (BD). Cell media was changed daily. The hESCs were subcultured with 1 mg/ml Dispase (Stem cell technologies) every 5-7 days. 3iL hESCs culture medium contains 1 μM of PD0325901 (Sigma), 2 μM of BIO (Sigma), 2 μM of Dorsomorphin (Sigma) and 10 ng/ml human LIF (Millipore) in TeSR1. 3iL media are prepared fresh and stored at 4° C. for not more than 2 weeks. For treatment with 3iL conditions, hESCs cultured in TeSR1 was treated with 3iL 48 hrs post-seeding. The cells are subsequently subcultured on mitomycin C inactivated mouse fibroblast. Cells are dissociated to single cells using TrypLE (Life Technologies). 3iL medium is refreshed daily and cells are subcultured upon confluency. ROCK inhibitor Thiazovivin is added at a final concentration of 1 μM to enhance cell survival for the first few passages. 3iL hESCs used in all the experiments have been cultured for at least 10 passages for adequate conditioning to the new culture condition.
hESCs were dissociated with dispase and treatment starts 48 hrs post seeding. For single chemical and combinatorial chemical treatment, the small molecules are used at the following final concentrations: 0.5 μM A83-01 (Stemgent), 2 μM BIO (Sigma), 3 μM CHIR99021 (Stemgent), 2 μM Dorsomorphin (Sigma), 8 μM Forskolin (Stemgent), 2 μM IDE-1 (Stemgent), 0.5 μM PD153035 (Sigma), 1 μM PD173074 (Sigma), 1 μM PD0325901 (Sigma), 5 μM Pifithrin-α (Sigma) and 1 μM RepSox (Sigma). All small molecules are reconstituted in DMSO. For PI3K pathway inhibition, LY294002 (Sigma) was used at final concentration of 10 μM.

| Compound | Gene expression levels of pluripotency markers NANOG and POU5F1 (hESCs) | Expression of NANOG and POU5F1 (hESCs) | further results |
| --- | --- | --- | --- |
| CCN(CC)CCCCNc1ncc2cc(-c3cc(OC)cc(OC)c3)c(NC(=O)NC(C)(C)C)nc2n1 [PD173074] |  |  | Pluripotency markers NANOG, OCT4 and TRA-1-60 in 3iL hESCs (3iL hESCs): loss of pluripotency markers |
| LIF: leukemia inhibitory factor, human recombinant |  |  | NANOG expression levels (LIF signaling; increasing amount of LIF under 3i treatment, 5 days, FIG. 4A): increased with the addition of LIF in a dosage dependent manner; STAT3 phosphorylation (LIF signaling; whole cell extracts, Western blot, FIG. 3H): weakly activates |
| O=C1Nc2cc(Br)ccc2/C1=C1/Nc2ccccc2/C1=N\O [BIO, 6-bromoindirubin-3′-oxime] | downregulation | downregulated | Expression level of lineage markers (hESCs): stronger upregulation of T and GATA6 |
| c1cc(-c2cnn3cc(-c4ccc(OCCN5CCCCC5)cc4)cnc23)ccn1 [DOR, 6-[4-(2-Piperidin-1-ylethoxy)phenyl]-3-pyridin-4-ylpyrazolo[1,5-a]pyrimidine] |  | remains in a comparable range |  |
| Cc1cccc(-c2nn(C(=S)Nc3ccccc3)cc2-c2ccnc3ccccc23)n1 [A83-01] | downregulation |  | Pluripotency markers NANOG, OCT4 and TRA-1-60 in 3iL hESCs (3iL hESCs): loss of pluripotency markers |
| O=C(NOC[C@H](O)CO)c1ccc(F)c(F)c1Nc1ccc(I)cc1F [PD03] |  | remains in a comparable range | Expression level of lineage markers (hESCs): increase in the PAX6 transcript |
| Cc1cccc(-c2[nH]ncc2-c2ccc3ncccc3n2)n1 [RepSOX] | downregulation |  |  |
